The source made the active and inactive calls. The rule behind the calls is not given here.
Tested on: MRP1 cells, doxorubicin viability shift, 10 uM compound
Experiment: viability protection against doxorubicin, MRP-1 line – cell-based, doxorubicin EC50 shift, dose response (AID 844)
Conditions: for EC50: measured here: doxorubicin EC50 with compound

## O=C(COC(=O)C1CC2C=CC1C2)Nc1ccc2c(c1)OC(F)(F)O2 (stereo not drawn)
  fold increase in Dox EC50: 1.21 (inactive)
  EC50: 6.54 µM

## CCCCCOc1ccc(CSc2ncn[nH]2)cc1
  fold increase in Dox EC50: 0.68 (inactive)
  EC50: 3.69 µM

## COc1ccc(OCc2nc3ccc(S(=O)(=O)Nc4ccccc4Cl)cc3[nH]2)cc1
  fold increase in Dox EC50: 0.96 (inactive)
  EC50: 5.16 µM

## COc1cc(/C=C(\C#N)c2ccccn2)ccc1OCc1ccccc1Cl
  fold increase in Dox EC50: 1.1 (inactive)
  EC50: 5.95 µM

## COc1ccc(S(=O)(=O)N(CC(=O)N2CCN(c3ccccc3OC)CC2)c2ccccc2)cc1
  fold increase in Dox EC50: 0.46 (inactive)
  EC50: 2.49 µM

## N#C/C(=N/Nc1ccccc1F)C(=N)N1CCOCC1
  fold increase in Dox EC50: 0.99 (inactive)
  EC50: 5.33 µM

## Nc1nc2n(n1)C(c1cccs1)CC(c1ccc(Br)cc1)N2 (stereo not drawn)
  fold increase in Dox EC50: 0.91 (inactive)
  EC50: 4.93 µM

## CCCCCCn1c(O)c(/C=C2\C=NN=C2c2ccccc2)sc1=S
  fold increase in Dox EC50: 0.77 (inactive)
  EC50: 4.16 µM

## CCCCn1nnc(NC(=S)NC(=O)c2cccs2)n1
  fold increase in Dox EC50: 1.16 (inactive)
  EC50: 6.26 µM

## CCc1ccc(C2CC(c3ccccc3C)n3nc(N)nc3N2)cc1 (stereo not drawn)
  fold increase in Dox EC50: 0.57 (inactive)
  EC50: 3.07 µM

## C=CCOc1c(CNc2ccc(C(=O)O)cc2)cccc1OCC
  fold increase in Dox EC50: 0.59 (inactive)
  EC50: 3.21 µM

## CCOP(=O)(OCC)C(NC(=O)Nc1ccc(Cl)cc1)C(=O)N(CC)CC (stereo not drawn)
  fold increase in Dox EC50: 1.33 (inactive)
  EC50: 7.16 µM

## Cc1ccc(C(c2sc3ncnn3c2O)N2CCC(C)CC2)cc1 (stereo not drawn)
  fold increase in Dox EC50: 0.72 (inactive)
  EC50: 3.87 µM

## CCC(Sc1nc2ccccc2s1)C(=O)Nc1nnc(C)s1 (stereo not drawn)
  fold increase in Dox EC50: 1.04 (inactive)
  EC50: 5.61 µM

## Cc1cc(C)c(S(C)(=O)=O)c(Sc2ccc(Cl)cc2)n1
  fold increase in Dox EC50: 0.81 (inactive)
  EC50: 4.38 µM

## COc1ccc(OC)c(NC(=O)CSc2nnc(CNC(=O)COc3ccc(Cl)cc3)o2)c1
  fold increase in Dox EC50: 1.11 (inactive)
  EC50: 5.98 µM

## Cc1cc(C)c(N=Cc2c(O)n(-c3nccs3)c(=O)c3ccccc23)c(C)c1
  fold increase in Dox EC50: 0.29 (inactive)
  EC50: 1.54 µM

## COc1ccc(C(=O)Nc2ccc(Cl)c(S(=O)(=O)Nc3ccccc3OC)c2)cc1
  fold increase in Dox EC50: 0.57 (inactive)
  EC50: 3.05 µM

## CCOC(=O)c1c(-c2ccc(C)o2)csc1NC(=O)CSc1ncn[nH]1
  fold increase in Dox EC50: 0.51 (inactive)
  EC50: 2.74 µM

## COC(=O)N/N=C/c1ccc(-c2ccc(Cl)c(Cl)c2)o1
  fold increase in Dox EC50: 0.67 (inactive)
  EC50: 3.62 µM

## Cc1cccc2cc(CN(Cc3ccco3)S(=O)(=O)c3ccc4c(c3)OCCO4)c(=O)[nH]c12
  fold increase in Dox EC50: 0.96 (inactive)
  EC50: 5.19 µM

## CC(/C=C1\SC(=S)N(CCCC(=O)Nc2ccc(C(=O)O)cc2)C1=O)=C\c1ccccc1
  fold increase in Dox EC50: 0.55 (inactive)
  EC50: 2.98 µM

## Cc1ccc(/C=C2\SC(=S)N(CCC(=O)NNS(=O)(=O)c3ccc(C)cc3)C2=O)cc1
  fold increase in Dox EC50: 0.48 (inactive)
  EC50: 2.6 µM

## COC(=O)c1ccc(NC(=O)C(=O)N2CCN(C(=S)Nc3cccc(OC)c3)CC2)cc1
  fold increase in Dox EC50: 1.28 (inactive)
  EC50: 6.93 µM

## O=C1NC(=O)C2(COC(c3ccccc3Cl)OC2)S1 (stereo not drawn)
  fold increase in Dox EC50: 0.69 (inactive)
  EC50: 3.74 µM

## N#Cc1ccc(N2C(=O)[C@@H]3C(C(=O)c4ccc5ccccc5n4)=NN[C@@H]3C2=O)cc1
  fold increase in Dox EC50: 1.3 (inactive)
  EC50: 7 µM

## N#CCCNC(=O)Cn1c(COc2ccc(Cl)cc2)nc2ccccc21
  fold increase in Dox EC50: 0.85 (inactive)
  EC50: 4.57 µM

## Cc1noc(/C=C/N(C)C)c1S(=O)(=O)N1CCCC(C(=O)NCc2ccccc2Cl)C1 (stereo not drawn)
  fold increase in Dox EC50: 0.82 (inactive)
  EC50: 4.42 µM

## N#Cc1nc(COc2ccc(Br)cc2)oc1N1CCCCCC1
  fold increase in Dox EC50: 0.78 (inactive)
  EC50: 4.21 µM

## O=C1Cc2ccccc2C(=O)N1CCc1ccccc1
  fold increase in Dox EC50: 0.44 (inactive)
  EC50: 2.37 µM

## Cn1c(N)c(C(=O)COC(=O)c2cc(C3CC3)nc3ccccc23)c(=O)n(Cc2ccccc2)c1=O
  fold increase in Dox EC50: 0.94 (inactive)
  EC50: 5.07 µM

## CCOC(=O)c1c(-c2ccc(F)cc2)csc1NC(=O)c1c(-c2ccccc2)noc1C
  fold increase in Dox EC50: 0.56 (inactive)
  EC50: 3 µM

## Cc1ccc(OCc2nc(-c3ccc(Cl)cc3)n[nH]2)cc1
  fold increase in Dox EC50: 0.79 (inactive)
  EC50: 4.24 µM

## CCc1nccn1C(=O)c1cnn2c(C(F)F)cc(-c3ccc(C)cc3)nc12
  fold increase in Dox EC50: 0.1 (inactive)
  EC50: 0.523 µM

## Cc1onc(-c2ccccc2)c1C(=O)Nc1nnc(N(C)Cc2ccccc2)s1
  fold increase in Dox EC50: 0.64 (inactive)
  EC50: 3.46 µM

## COc1ccc(C(=O)Nc2ccc(S(=O)(=O)Nc3nccnc3OC)cc2)cc1
  fold increase in Dox EC50: 1.12 (inactive)
  EC50: 6.04 µM

## N=C(N)SCc1ccccn1
  fold increase in Dox EC50: 0.54 (inactive)
  EC50: 2.9 µM

## CC(NC(=O)CN1CCN(Cc2ccc(Cl)cc2)C1=O)c1ccc2c(c1)OCCO2 (stereo not drawn)
  fold increase in Dox EC50: 0.87 (inactive)
  EC50: 4.67 µM

## COc1cccc(C2C(C(=O)Nc3nc4ccccc4s3)=C(C)NC3=C2C(=O)CC(C)(C)C3)c1OC (stereo not drawn)
  fold increase in Dox EC50: 0.3 (inactive)
  EC50: 1.6 µM

## CCCCCC(=O)Nc1ccc(S(=O)(=O)Nc2ccc(Cl)nn2)cc1
  fold increase in Dox EC50: 1.12 (inactive)
  EC50: 6.04 µM

## Cc1onc(-c2ccccc2Cl)c1C(=O)Nc1nnc(-c2ccc(Br)cc2)s1
  fold increase in Dox EC50: 0.75 (inactive)
  EC50: 4.04 µM

## O=C(NCCc1ccc(Cl)cc1)c1cnc2n(c1=O)CCS2
  fold increase in Dox EC50: 0.66 (inactive)
  EC50: 3.55 µM

## CNC[C@H](O)c1ccc(O)c(O)c1
  fold increase in Dox EC50: 0.69 (inactive)
  EC50: 3.75 µM

## O=C1CC(c2ccccc2)c2cc(O)ccc2O1 (stereo not drawn)
  fold increase in Dox EC50: 0.99 (inactive)
  EC50: 5.35 µM

## COc1ccc2cc(-c3cc(C(=O)O)c4ccccc4n3)ccc2c1
  fold increase in Dox EC50: 1.07 (inactive)
  EC50: 5.75 µM

## COC(=O)CC1SC(=O)NC1=O (stereo not drawn)
  fold increase in Dox EC50: 0.9 (inactive)
  EC50: 4.84 µM

## Cc1ccccc1NC(=O)CSC1=NCCN1
  fold increase in Dox EC50: 0.69 (inactive)
  EC50: 3.73 µM

## COc1ccc(NC(=O)CC2C(=O)N(c3ccc(F)cc3)C(=S)N2NC(=O)c2ccccc2)cc1 (stereo not drawn)
  fold increase in Dox EC50: 0.79 (inactive)
  EC50: 4.29 µM

## Cc1ccnc(NC(=O)COc2ccc3oc4c(c3c2)CCCC4)c1
  fold increase in Dox EC50: 0.78 (inactive)
  EC50: 4.21 µM

## N#Cc1cc2c(nc1SCc1ccc(Cl)cc1)CCCC2
  fold increase in Dox EC50: 1.07 (inactive)
  EC50: 5.75 µM

## Cc1ccccc1NC(=O)CC1SC(=O)N(c2ccccc2)C1=O (stereo not drawn)
  fold increase in Dox EC50: 1.35 (inactive)
  EC50: 7.29 µM

## CCOC(=O)c1c(-c2cccs2)csc1NC(=O)CSc1ncn[nH]1
  fold increase in Dox EC50: 0.2 (inactive)
  EC50: 1.09 µM

## CCC(C)Nc1ncnc2c1cnn2Cc1ccc(Cl)cc1 (stereo not drawn)
  fold increase in Dox EC50: 0.84 (inactive)
  EC50: 4.55 µM

## O=C(CSCc1ccc(Cl)cc1)N1CCN(Cc2ccc3c(c2)OCO3)CC1
  fold increase in Dox EC50: 0.77 (inactive)
  EC50: 4.18 µM

— PubChem BioAssay AID844 (SRMLSC, 2007)
